Data as given in patent US8426433B2, priority 2007, dated 2013).

Tested on: endogenous thrombin potential in diluted donor platelet-free plasma
Experiment: ETP in plasma diluted with NaCl 0.9% plasma-substituting solution containing inhibitor
Assay type: biochemical
Conditions: 0.25-0.5 mcM in NaCl 0.9% solution; plasma diluted at a ratio of 1.5 to 4, FIG. 12
Procedure: Donor blood prepared on a 3.8% sodium citrate at a 9:1 ratio of blood to citrate (20 ml) was centrifuged for 15 minutes at 1,300 g. Some of the platelet-poor plasma (PPP) was centrifuged for another 10 minutes at 10,000 g to obtain a platelet-free plasma (PFP). The PFP thus produced was then used for measuring the endogenous thrombin potential.
PFP was diluted at a ratio of 1.5, 2, 3 and 4 with either transfusion-grade physiological saline (NaCl 0.9%) or with the same solution containing additionally a thrombin inhibitor HC-025s-IOC (at concentrations of 0.25, 0.5 or 1 mcM). For constant concentration of Ca^+2 to be maintained through the tests after recalcification, sodium citrate concentration was maintained constant in all plasma dilutions to be identical to the concentration in initial undiluted plasma, for which purpose the initial plasma-substituting solutions used to dilute the plasma were first mixed with 3.8% sodium citrate similarly with initial blood at a 9:1 solution to citrate ratio.
The plasma sample used in the above-described ETP measurement method was always diluted at a 1.5 ratio throughout. An opportunity must be provided to measure ETP in undiluted plasma in experiments to dilute plasmas with PSS. […] Endogenous thrombin potential was measured for each of the diluted plasmas in the presence of different concentrations of HC-025s-IOC.

## Cc1cc(OCC[n+]2ccc(N)cc2)cc(OS(=O)(=O)c2ccccc2Cl)c1.[I-] [HC-025s-IOC, 4-amino-1-(2-(3-methyl-5-(2-chlorobenzenesulfonyloxy)phenoxy)ethyl)-pyridinium iodide]
  ETP readings for different plasma dilutions: closest thing to normal
